Results reported in PubChem BioAssay AID330 (DTP/NCI, 2004).
Several values for one entry are separate records, joined by “and”; a condition that tells them apart may be missing. Identical values can stand only once. Inconclusive results and toxic doses are left out. Rule for the calls: active = survival T/C of 150% or more; inactive = T/C below 125% in these data.

Tested on: P388 leukemia ip, CD2F1 mice, survival T/C
Test: NCI In Vivo Anticancer Drug Screen. Data for tumor model P388 Leukemia (intraperitoneal) in CD2F1 (CDF1) mice
Conditions: endpoint: median survival time, higher = longer survival
In short: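 Mice carrying the transplanted tumor received test compound or vehicle. Survival was recorded in each group, and the value is the treated-group measurement divided by that of the vehicle-treated control group.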

[1] = dose: 60.0 mg/kg/injection, schedule: Q01DX005 (ip), vehicle: saline with Tween-80
[2] = dose: 120.0 mg/kg/injection, schedule: Q01DX005 (ip), vehicle: saline with Tween-80
[3] = dose: 240.0 mg/kg/injection, schedule: Q01DX005 (ip), vehicle: saline with Tween-80
[4] = dose: 25.0 mg/kg/injection, schedule: Q01DX005 (ip), vehicle: Klucel (hydroxypropylcellulose) (HPC)
[5] = dose: 50.0 mg/kg/injection, schedule: Q01DX005 (ip), vehicle: Klucel (hydroxypropylcellulose) (HPC)
[6] = dose: 50.0 mg/kg/injection, schedule: Q01DX009 (ip), vehicle: saline with Tween-80
[7] = dose: 100.0 mg/kg/injection, schedule: Q04DX003 (ip), vehicle: saline with Tween-80
[8] = dose: 100.0 mg/kg/injection, schedule: Q01DX009 (ip), vehicle: saline
[9] = dose: 200.0 mg/kg/injection, schedule: Q01DX009 (ip), vehicle: saline
[10] = dose: 12.5 mg/kg/injection, schedule: Q01DX005 (ip), vehicle: Klucel (hydroxypropylcellulose) (HPC)
[11] = dose: 50.0 mg/kg/injection, schedule: Q01DX009 (ip), vehicle: Klucel (hydroxypropylcellulose) (HPC)
[12] = dose: 100.0 mg/kg/injection, schedule: Q01DX009 (ip), vehicle: Klucel (hydroxypropylcellulose) (HPC)
[13] = dose: 200.0 mg/kg/injection, schedule: Q01DX009 (ip), vehicle: Klucel (hydroxypropylcellulose) (HPC)

Measured: T/C

CCN(CC)C(C)(C)C(=O)/C=C/c1ccc(OC)cc1
inactive: [1] 115 % of control | [2] 107 % of control | [3] 100 % of control

O=C(CBr)c1cc2c(cc1Br)OCO2
inactive: dose: 12.5 mg/kg/injection, schedule: Q01DX001 (ip), vehicle: Klucel (hydroxypropylcellulose) (HPC) 102 % of control | dose: 25.0 mg/kg/injection, schedule: Q01DX001 (ip), vehicle: Klucel (hydroxypropylcellulose) (HPC) 104 % of control | dose: 50.0 mg/kg/injection, schedule: Q01DX001 (ip), vehicle: Klucel (hydroxypropylcellulose) (HPC) 103 % of control

CNC(=O)OCc1nc(-c2ccccc2)oc1COC(=O)NC
inactive: dose: 12.5 mg/kg/injection, schedule: Q01DX005 (ip), vehicle: distilled water + Tween-80 96 % of control | dose: 25.0 mg/kg/injection, schedule: Q01DX005 (ip), vehicle: distilled water + Tween-80 97 % of control | dose: 50.0 mg/kg/injection, schedule: Q01DX005 (ip), vehicle: distilled water + Tween-80 92 % of control | dose: 100.0 mg/kg/injection, schedule: Q01DX005 (ip), vehicle: distilled water + Tween-80 89 % of control | dose: 200.0 mg/kg/injection, schedule: Q01DX005 (ip), vehicle: distilled water + Tween-80 89 % of control

CC(=NC(C)(C)C)N1CCOCC1
inactive: dose: 50.0 mg/kg/injection, schedule: Q01DX009 (ip), vehicle: saline + Tween-80 + alcohol 101 % of control | dose: 100.0 mg/kg/injection, schedule: Q01DX009 (ip), vehicle: saline + Tween-80 + alcohol 100 % of control | dose: 200.0 mg/kg/injection, schedule: Q01DX009 (ip), vehicle: saline + Tween-80 + alcohol 88 % of control

CSCCCNCc1ccccc1
inactive: dose: 50.0 mg/kg/injection, schedule: Q01DX005 (ip), vehicle: saline 100 % of control | dose: 100.0 mg/kg/injection, schedule: Q01DX005 (ip), vehicle: saline 106 % of control

Cc1cc(C)n(C2=NS(=O)(=O)c3ccccc3N2C)n1
inactive: [1] 93 % of control | [2] 101 % of control | [3] 99 % of control

CC(C)c1cccc(C(C)C)c1N1C(=O)C(=O)C(c2nc3ccccc3s2)C(=O)C1=O
inactive: [1] 103 % of control | [2] 102 % of control | [3] 103 % of control

COc1cc2c(cc1C(C)c1ccc(OC(C)=O)cc1)OCO2 (configuration not stated)
inactive: [4] 103 % of control | [5] 103 % of control | dose: 100.0 mg/kg/injection, schedule: Q01DX005 (ip), vehicle: Klucel (hydroxypropylcellulose) (HPC) 99 % of control | dose: 200.0 mg/kg/injection, schedule: Q01DX005 (ip), vehicle: Klucel (hydroxypropylcellulose) (HPC) 101 % of control

CSc1cccc(NC(=O)Oc2c(Cl)cccc2Cl)c1
inactive: dose: 50.0 mg/kg/injection, schedule: Q01DX009 (ip), vehicle: gum acacia 113 % of control | dose: 100.0 mg/kg/injection, schedule: Q01DX009 (ip), vehicle: gum acacia 111 % of control

C=CCNc1ccc(C)cc1
inactive: dose: 33.0 mg/kg/injection, schedule: Q01DX009 (ip), vehicle: saline with Tween-80 116 % of control | [6] 116 % of control | [7] 100 % of control | dose: 200.0 mg/kg/injection, schedule: Q04DX003 (ip), vehicle: saline with Tween-80 122 % of control | dose: 400.0 mg/kg/injection, schedule: Q04DX003 (ip), vehicle: saline with Tween-80 90 % of control

COc1ccc2c(c1)C(O)(CN)CCCCC(OC)CCCC2 (configuration not stated)
inactive: dose: 7.5 mg/kg/injection, schedule: Q01DX005 (ip), vehicle: saline with Tween-80 100 % of control | dose: 15.0 mg/kg/injection, schedule: Q01DX005 (ip), vehicle: saline with Tween-80 101 % of control | dose: 30.0 mg/kg/injection, schedule: Q01DX005 (ip), vehicle: saline with Tween-80 99 % of control | [1] 101 % of control

CC(Br)C(=O)NC(Cc1ccccc1)C(=O)O (configuration not stated)
inactive: [8] 99 % of control | [9] 103 % of control | dose: 400.0 mg/kg/injection, schedule: Q01DX009 (ip), vehicle: saline 89 % of control

Cc1csc2c3ccccc3cc(=O)n12
inactive: [10] 95 % of control | [4] 99 % of control | [5] 100 % of control | dose: 100.0 mg/kg/injection, schedule: Q01DX001 (ip), vehicle: Klucel (hydroxypropylcellulose) (HPC) 98 % of control

CN(C)NC(=O)/C=C\C(=O)O
inactive: dose: 66.0 mg/kg/injection, schedule: Q01DX009 (ip), vehicle: saline 105 % of control | [8] 100 % of control | dose: 150.0 mg/kg/injection, schedule: Q01DX009 (ip), vehicle: saline 100 % of control | [9] 91 % of control

CCCCNC(=O)N(CC)c1ccccc1
inactive: dose: 100.0 mg/kg/injection, schedule: Q01DX001 (ip), vehicle: saline 109 % of control | dose: 200.0 mg/kg/injection, schedule: Q01DX001 (ip), vehicle: saline 113 % of control | dose: 400.0 mg/kg/injection, schedule: Q01DX001 (ip), vehicle: saline 109 % of control

CCN=C(Nc1cccc(C2=NCCN2)c1)c1ccc(C(=NCC)Nc2cccc(C3=NCCN3)c2)cc1
inactive: dose: 1.56 mg/kg/injection, schedule: Q01DX005 (ip), vehicle: Klucel (hydroxypropylcellulose) (HPC) 100 % of control | dose: 3.12 mg/kg/injection, schedule: Q01DX005 (ip), vehicle: Klucel (hydroxypropylcellulose) (HPC) 99 % of control | dose: 6.25 mg/kg/injection, schedule: Q01DX005 (ip), vehicle: Klucel (hydroxypropylcellulose) (HPC) 109 % of control | [10] 109 % of control

Cc1ccc(S(=O)(=O)OCCOCCOc2ccc3ccccc3c2-c2c(OCCOS(=O)(=O)c3ccc(C)cc3)ccc3ccccc23)cc1
inactive: dose: 100.0 mg/kg/injection, schedule: Q01DX001 (ip), vehicle: saline with Tween-80 89 % of control | dose: 200.0 mg/kg/injection, schedule: Q01DX001 (ip), vehicle: saline with Tween-80 100 % of control

O=C1C2=C(CCC2)C(=O)N1c1ccc(N2C(=O)C3=C(CCC3)C2=O)cc1
inactive: dose: 1.56 mg/kg/injection, schedule: Q01DX009 (ip), vehicle: distilled water + Tween-80 101 % of control | dose: 3.13 mg/kg/injection, schedule: Q01DX009 (ip), vehicle: distilled water + Tween-80 102 % of control | dose: 6.25 mg/kg/injection, schedule: Q01DX009 (ip), vehicle: distilled water + Tween-80 100 % of control | dose: 12.5 mg/kg/injection, schedule: Q01DX009 (ip), vehicle: distilled water + Tween-80 99 % of control | dose: 25.0 mg/kg/injection, schedule: Q01DX009 (ip), vehicle: distilled water + Tween-80 107 % of control | dose: 50.0 mg/kg/injection, schedule: Q01DX009 (ip), vehicle: distilled water + Tween-80 103 % of control | dose: 100.0 mg/kg/injection, schedule: Q01DX009 (ip), vehicle: distilled water + Tween-80 119 % of control

CC1=NNC(=O)C1
inactive: [11] 86 % of control | [12] 102 % of control | [13] 94 % of control | dose: 400.0 mg/kg/injection, schedule: Q01DX009 (ip), vehicle: Klucel (hydroxypropylcellulose) (HPC) 106 % of control

CC(C)(C)COSc1ccccc1
inactive: [7] 106 % of control

CCC1=C[C@H]2CN(CCc3c([nH]c4ccccc34)[C@@](C(=O)OC)(c3cc4c(cc3OC)N(C=O)[C@H]3[C@@](O)(C(=O)OC)[C@H](OC(C)=O)[C@]5(CC)C=CCN6CC[C@]43[C@@H]65)C2)C1
inactive: dose: 0.13 mg/kg/injection, schedule: Q01DX001 (ip), vehicle: water 99 % of control | dose: 0.25 mg/kg/injection, schedule: Q01DX001 (ip), vehicle: water 100 % of control | dose: 0.5 mg/kg/injection, schedule: Q01DX001 (ip), vehicle: water 116 % of control

c1ccc(NSc2ccccc2)cc1
inactive: dose: 25.0 mg/kg/injection, schedule: Q01DX009 (ip), vehicle: Klucel (hydroxypropylcellulose) (HPC) 119 % of control | dose: 25.0 mg/kg/injection, schedule: Q01DX009 (ip), vehicle: saline with Tween-80 100 % of control | [11] 103 % of control and 119 % of control | [6] 98 % of control | [12] 101 % of control and 121 % of control | dose: 100.0 mg/kg/injection, schedule: Q01DX009 (ip), vehicle: saline with Tween-80 109 % of control | [13] 106 % of control | dose: 200.0 mg/kg/injection, schedule: Q01DX009 (ip), vehicle: saline with Tween-80 100 % of control

CC(C)=CCCC(C)=CCON(C)C (mixture of isomers)
inactive: dose: 100.0 mg/kg/injection, schedule: Q04DX002 (ip), vehicle: saline with Tween-80 92 % of control | dose: 200.0 mg/kg/injection, schedule: Q04DX002 (ip), vehicle: saline with Tween-80 101 % of control
